The source of these data is article PMC8234462, “Novel Cyclophilin Inhibitor Decreases Cell Proliferation and Tumor Growth in Models of Hepatocellular Carcinoma” (Cancers, 2021).

Where two headings read alike, the source gives them in different places.

The test system of one series is LIXC-012. Kind of series: Cell proliferation assay: Acumen. Format: cell-based. Particulars: Homo sapiens, 168 h, 7 days, read-out: Abs IC50 growth inhibition. How it is done: (§1) Compound screening and comparison of the antiproliferative effect of NV651 and sorafenib were performed by Shanghai ChemPartner Co., Ltd. (Shanghai, China). Cells were seeded in a 96-well plate at the following concentrations: LIXC-003 400 cells/well, LIXC-004 1000 cells/well, LIXC-086 5000 cells/well, LIXC-066 1250 cells/well, LIXC-012 2000 cells/well, LIXC-006 1250 cells/well, HEPG2 1000 cells/well, HUH7 2000 cells/well and Hep3B2.1-7-Luc 1000 cells/well. Cells were treated with either sorafenib or NV651 at 0.004, 0.011, 0.034, 0.103, 0.309, 0.926, 2.778, 8.333, 25 µM or an equivalent volume with DMSO.
(§2) After 7 days, cells were trypsinized and collected. Fifty microliters of cell suspension were added to 50 µL of 2-µM Calcein AM (Invitrogen, Cat# C3099, Waltham, MA, USA) diluted in HBSS and placed in a black-walled 96-well plate. The plate was left for 30 min at room temperature, followed by a scan with Acumen eX3.
(§3) Growth inhibition for direct cell counting (%) by Acumen was calculated as:(1) 100−100∗Experimental count−Blank/DMSO count −Blank

For a further series, the system named is HEP3B2.1-7-Luc. Briefly: Cell proliferation assay: Acumen. Format: cell-based. Particulars: Homo sapiens, 168 h, 7 days, read-out: Abs IC50 growth inhibition. How it is done: as §1, §2, §3
Another series has as its system LIXC-003. Kind of series: Cell proliferation assay: Acumen. Type of series: cell-based. Particulars: Homo sapiens, 168 h, 7 days, read-out: Abs IC50 growth inhibition. How it is done:
as §1, §2, §3

Another series deals with LIXC-086. Kind of series: Cell proliferation assay: Acumen. Format: cell-based. Conditions: Homo sapiens, 168 h, 7 days, read-out: Abs IC50 growth inhibition. How it is done:
as §1, §2, §3

A further series has as its system LIXC-006. Briefly: Cell proliferation assay: Acumen. Type of series: cell-based. Particulars: Homo sapiens, 168 h, 7 days, read-out: Abs IC50 growth inhibition. How it is done: as §1, §2, §3
In a further series the test system is HUH7. Kind of series: Mitochondrial membrane potential (DiOC(6)3) and PI fluorocytometry. Type of series: cell-based, human. Conditions: 72 h, 20, 50 or 100 nM. How it is done:
(§4) HEPG2 and HUH7 cells were seeded at 1.5 × 10^5 cells/well and 1 × 10^5 cells/well, respectively, 24 h prior to treatment. After 72 h of treatment (0, 20, 50 or 100 nM of NV651), supernatant and trypsinized cells were collected and stained with propidium iodide (PI) (Thermo Fisher Scientific, Waltham, MA, USA) at a concentration of 1 μg/mL to evaluate the plasma membrane integrity; due to the lack of cell permeability, only dead cells are able to incorporate it. In addition, changes in the mitochondrial membrane potential were evaluated by 3,3′-dihexyloxacarbocyanine iodide (DiOC(6)3)(Molecular Probes–Invitrogen, Waltham, MA, USA) staining at a concentration of 40 nM.
(§5) Data was acquired with FACSverse Instrument and analyzed with FCS Express 6 Flow Research.

For series [1], the system named is HEPG2. The series is described as above. Format: cell-based, human. Particulars: 72 h, 20, 50 or 100 nM. How it is done: as §4, §5
Series [2] can be described thus: Pharmacokinetics single oral administration, blood and liver. Type of series: in vivo. Conditions: CD1 mice, 10 mg/kg PO; for Tmax: male, mouse. How it is done:
These experiments were performed by Shanghai ChemPartner Co., Ltd. (Shanghai, China) following the guidance described above. Twelve CD1 male mice with a weight between 28–30 g were purchased from SLAC Laboratory Animal Co. Ltd. (Shanghai, China). NV651 was diluted in 5% ethanol, 5% Cremophor EL and 90% saline. A single 10-mg/kg dose of NV651 was given orally (PO). […] At the selected time points, 30 µL of the blood samples were taken via face glass insert or cardiac puncture and placed into K2EDTA tubes. Tissues were terminal-collected at the designated time points. Thirty microliters of blood or liver samples were mixed with 100-µL Pierce Acetonitrile (ACN, Thermo Fisher Scientific, Waltham, MA, USA) containing 20-ng/mL IS (702) used as the internal standard. An aliquot of 10-µL supernatant was injected for LC-MS/MS analysis using LCMSMS-003 (API4000).

The next series relates to PLC/PRF/5. Kind of series: Clonogenic assay. Type of series: cell-based, human. Conditions: continuously treated 14 days, crystal violet. How it is done: (§6) Cells were seeded at 2500/mL and, starting 24 h later, provided with fresh medium and NV651 every day for the following 14 days. Then, colonies were stained with crystal violet, which was subsequently dissolved in 10% acetic acid and quantified by a spectrophotometer by absorbance at 595 nm.

The next series relates to Huh-7D12. Briefly: Clonogenic assay. Type of series: cell-based, human. Conditions: continuously treated 14 days, crystal violet. How it is done: as §6
The next series deals with Hep3B. Briefly: Clonogenic assay. Conditions: continuously treated 14 days, crystal violet. Format: cell-based, human. How it is done: as §6
Series [3] concerns HEPG2. Briefly: Clonogenic assay. Format: cell-based, human. Particulars: continuously treated 14 days, crystal violet. How it is done:
as §6

A short description of series [4]: Body weight during xenograft treatment. Type of series: in vivo, NMRI nude mice. Conditions: 10 mg/kg daily subcutaneous; 3 weeks. How it is done: HEPG2 cells were transduced with RediFect Red-FLuc-GFP (Perkin Elmer, Cat# CLS960003, Waltham, MA, USA) with a MOI = 3 and sorted for GFP^+ in a FACSAria III (BD Biosciences, Franklin Lakes, NJ, USA). GFP^+Luciferase (Luc)^+ HEPG2 cells were confirmed to be negative for mycoplasma with the MycoAlert^TM Mycoplasma Detection Kit (Lonza, Cat# LT07-418, Basel, Switzerland). Cell viability and a percentage of the GFP^+ cells were analyzed before the start of the in vivo experiment with a BD FACSverse cytometer (BD Biosciences, Franklin Lakes, NJ, USA). Twenty NMRI nude female mice (6–8 weeks old) were injected in one flank with 1 million cells suspended in PBS with 50% Matrigel (Corning, Cat# 354230, Corning, NY, USA) in a total volume of 200 µL. […]
Tumor growth was assessed with an in vivo imaging system (IVIS) one week after the injection of the cells. […] Body weights were measured at time 0 of the treatment and twice a week after the beginning of the treatment. […] Tumor growth was analyzed for up to 3 weeks. BLI signal intensity was quantified in total flux (photons/s) after deducting the average background signal from the measurement region of interest (ROI) around the tumor area using live image analysis software (PerkinElmer, Waltham, MA, USA).

Details of series [5]: method as in PMID 31717385. Particulars: cited from earlier work.

`CC(=O)CCC1C(=O)NC(C(C)C)C(=O)NC(Cc2cc(O)cc(F)c2)C(=O)N2CCCC(N2)C(=O)OC(C(C)=CC=CC(=O)OC(C)(C)C)CC=CC=CC(O)C(C)C1O` (stereo not shown) [NV651]: the IC50 in the series with LIXC-012 was found to be 94 nM; with HEP3B2.1-7-Luc, 9 nM; in the series with LIXC-003 it was 9 nM; with LIXC-086 it was 656 nM; with LIXC-006 it was 8 nM. For the same compound, the “changes in mitochondrial membrane potential (DiOC6(3)) and plasma membrane integrity (PI)” value in the series with HUH7 and in the series on HEPG2 [1] was “did not show any significant differences” in each case. In addition, the “level in liver relative to blood” value in series [2] (24 h after treatment) is “three-fold higher level in the liver than blood”. The Tmax in series [2] (blood, read-out: Tmax in blood) stood at 1 h; in series [2] (liver, read-out: Tmax in liver) it was 1 h. The number of colonies entry in the series on PLC/PRF/5, in the series on Huh-7D12, with Hep3B and in the series with HEPG2 [3] was “reduced the number of colonies” throughout. In addition, the body weight result in series [4] is “no significant changes”. In addition, the immunosuppressant activity result in series [5] is “no immunosuppressant activity”.
